As a reminder, the IC50 is the concentration at which inhibition is half-maximal.

This passage reports IC50 results from ChEMBL document CHEMBL5614463, “Discovery of Imidazo[1,2-a]pyrazine Derivatives as Potent ENPP1 Inhibitors” (J Med Chem, 2024).

Structures are written as SMILES.

One experiment addresses Autotaxin (Mus musculus, UniProt Q9R1E6). In words: Inhibition of N-terminal recombinant mouse ENPP2 […] extracted from HEK293F cells using p-Nph-5'-TMP as substrate by absorbance based analysis. It is filed as cell-free.
In experiment [1] the target is T1, Ectonucleotide pyrophosphatase/phosphodiesterase family member 3 (Homo sapiens, UniProt O14638).
T1 sequence (O14638 whole entry): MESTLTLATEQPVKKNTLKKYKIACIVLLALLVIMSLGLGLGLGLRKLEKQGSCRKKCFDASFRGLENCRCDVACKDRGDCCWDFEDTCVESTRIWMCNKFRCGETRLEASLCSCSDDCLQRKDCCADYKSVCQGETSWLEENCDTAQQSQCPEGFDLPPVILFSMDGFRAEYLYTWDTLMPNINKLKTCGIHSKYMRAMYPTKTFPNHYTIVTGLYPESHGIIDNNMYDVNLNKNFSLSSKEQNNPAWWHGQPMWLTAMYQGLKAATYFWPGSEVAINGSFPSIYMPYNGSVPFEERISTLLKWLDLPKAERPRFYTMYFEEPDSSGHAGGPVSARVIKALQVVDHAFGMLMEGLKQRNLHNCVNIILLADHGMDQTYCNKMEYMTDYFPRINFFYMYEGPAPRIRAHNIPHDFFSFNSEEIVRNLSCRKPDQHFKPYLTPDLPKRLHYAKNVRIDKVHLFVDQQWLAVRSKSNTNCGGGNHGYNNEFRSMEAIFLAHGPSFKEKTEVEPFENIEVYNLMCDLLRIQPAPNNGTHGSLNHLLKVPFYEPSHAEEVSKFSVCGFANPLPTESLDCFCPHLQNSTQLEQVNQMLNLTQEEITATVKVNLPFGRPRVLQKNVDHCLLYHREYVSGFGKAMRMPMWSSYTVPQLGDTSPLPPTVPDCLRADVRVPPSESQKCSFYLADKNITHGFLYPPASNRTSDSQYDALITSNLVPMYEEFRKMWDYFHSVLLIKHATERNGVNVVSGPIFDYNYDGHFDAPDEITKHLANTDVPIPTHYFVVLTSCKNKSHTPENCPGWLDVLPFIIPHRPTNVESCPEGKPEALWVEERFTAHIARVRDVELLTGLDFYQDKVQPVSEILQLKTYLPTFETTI
In words: Inhibition of recombinant human ENPP3 using p-Nph-5'-TMP as substrate by absorbance based analysis.

With `COc1ccc2c(-c3ccc(CNS(N)(=O)=O)cc3)ccnc2c1`, the IC50 was > 10000 nM at Autotaxin and 1270 nM in experiment [1].

On to `COc1cccc(F)c1-c1nc(C(=O)Nc2cc(F)ccc2N2CCC(NS(N)(=O)=O)CC2)cn2ccnc12`, for which the IC50 on Autotaxin is > 10000 nM; in experiment [1], 2520 nM.
